Source: ChEMBL document CHEMBL3526076, “Species-dependent and receptor-selective action of bilobalide on the function of constitutive androstane receptor and pregnane X receptor” (Drug Metab Dispos, 2012)

Legend:
CAR mRNA [1] = experiment: Effect on CAR mRNA expression in human hepatocytes at 25 uM by RT-PCR analysis relative to control; format: ADME, cell-based, Hepatocyte; conditions: read-out: FC
[2] = target: T1, Nuclear receptor subfamily 1 group I member 3 (Homo sapiens, UniProt Q14994); experiment: Activation of human CAR expressed in human HepG2 cells coexpressing CYP2B6 at 0.1 to 100 uM after 24 hrs by dual luciferase reporter gene assay; format: ADME, cell-based; conditions: hepg2, 24 h
T1 sequence (Q14994 whole entry): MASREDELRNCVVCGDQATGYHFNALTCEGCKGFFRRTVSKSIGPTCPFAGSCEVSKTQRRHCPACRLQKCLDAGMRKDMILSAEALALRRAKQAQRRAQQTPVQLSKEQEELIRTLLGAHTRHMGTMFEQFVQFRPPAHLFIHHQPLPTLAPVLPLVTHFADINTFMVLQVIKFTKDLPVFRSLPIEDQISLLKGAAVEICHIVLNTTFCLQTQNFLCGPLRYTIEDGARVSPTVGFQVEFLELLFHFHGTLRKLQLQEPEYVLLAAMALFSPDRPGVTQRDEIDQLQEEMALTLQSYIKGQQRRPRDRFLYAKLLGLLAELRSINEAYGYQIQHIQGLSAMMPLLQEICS

[3] = target: T2, Nuclear receptor subfamily 1 group I member 2 (Rattus norvegicus, UniProt Q9R1A7); experiment: Activation of rat PXR expressed in rat hepatocytes coexpressing CYP3A4 at 100 uM after 24 hrs by dual luciferase reporter gene assay; format: ADME, cell-based, Hepatocyte
T2 sequence (Q9R1A7 whole entry): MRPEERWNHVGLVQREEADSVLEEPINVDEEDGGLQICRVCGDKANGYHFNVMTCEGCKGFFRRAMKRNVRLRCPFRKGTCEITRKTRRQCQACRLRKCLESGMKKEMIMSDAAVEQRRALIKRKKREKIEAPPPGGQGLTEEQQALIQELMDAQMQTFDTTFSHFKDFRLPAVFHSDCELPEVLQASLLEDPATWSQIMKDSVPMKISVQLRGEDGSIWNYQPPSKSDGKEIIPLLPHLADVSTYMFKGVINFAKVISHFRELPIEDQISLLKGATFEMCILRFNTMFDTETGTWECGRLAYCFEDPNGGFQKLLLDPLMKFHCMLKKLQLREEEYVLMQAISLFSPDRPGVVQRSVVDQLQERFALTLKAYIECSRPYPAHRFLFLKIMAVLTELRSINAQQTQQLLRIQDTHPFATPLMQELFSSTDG

[4] = target: T3, Nuclear receptor subfamily 1 group I member 3 (Rattus norvegicus, UniProt Q9QUS1); experiment: Activation of CAR in rat hepatocytes assessed as increase in CYP2B-mediated benzyloxyresorufin O-dealkylation at 30 uM after 24 hrs by spectrofluorometric analysis relative to phenobarbital; format: ADME, cell-based, Hepatocyte
T3 sequence (Q9QUS1 whole entry): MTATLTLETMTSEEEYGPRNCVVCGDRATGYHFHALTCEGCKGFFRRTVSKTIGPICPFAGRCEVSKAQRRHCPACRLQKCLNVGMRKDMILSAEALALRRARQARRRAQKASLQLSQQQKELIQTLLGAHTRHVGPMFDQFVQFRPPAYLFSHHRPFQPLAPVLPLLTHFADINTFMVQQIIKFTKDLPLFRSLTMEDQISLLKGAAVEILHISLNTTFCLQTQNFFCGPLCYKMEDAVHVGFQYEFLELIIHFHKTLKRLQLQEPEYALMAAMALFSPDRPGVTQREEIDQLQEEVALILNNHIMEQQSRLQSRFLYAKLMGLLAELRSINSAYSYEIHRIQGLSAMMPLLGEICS

CAR mRNA [5] = experiment: Effect on CAR mRNA expression in rat hepatocytes at 10 uM by RT-PCR analysis relative to control; format: ADME, cell-based, Hepatocyte; conditions: read-out: FC
CAR mRNA [6] = experiment: Effect on CAR mRNA expression in rat hepatocytes at 3 uM by RT-PCR analysis relative to control; format: ADME, cell-based, Hepatocyte; conditions: read-out: FC
[7] = target: T3, Nuclear receptor subfamily 1 group I member 3; experiment: Activation of CAR in rat hepatocytes assessed as increase in CYP2B-mediated benzyloxyresorufin O-dealkylation at 10 uM after 24 hrs by spectrofluorometric analysis relative to phenobarbital; format: ADME, cell-based, Hepatocyte
[8] = target: T4, Nuclear receptor subfamily 1 group I member 2 (Homo sapiens, UniProt O75469); experiment: Activation of PXR in human Hu1043 hepatocytes assessed as effect on CYP3A-mediated testosterone 6beta-hydroxylation at 10 to 60 uM after 24 hrs by HPLC analysis; format: ADME, cell-based, Hepatocyte
T4 sequence (O75469 whole entry): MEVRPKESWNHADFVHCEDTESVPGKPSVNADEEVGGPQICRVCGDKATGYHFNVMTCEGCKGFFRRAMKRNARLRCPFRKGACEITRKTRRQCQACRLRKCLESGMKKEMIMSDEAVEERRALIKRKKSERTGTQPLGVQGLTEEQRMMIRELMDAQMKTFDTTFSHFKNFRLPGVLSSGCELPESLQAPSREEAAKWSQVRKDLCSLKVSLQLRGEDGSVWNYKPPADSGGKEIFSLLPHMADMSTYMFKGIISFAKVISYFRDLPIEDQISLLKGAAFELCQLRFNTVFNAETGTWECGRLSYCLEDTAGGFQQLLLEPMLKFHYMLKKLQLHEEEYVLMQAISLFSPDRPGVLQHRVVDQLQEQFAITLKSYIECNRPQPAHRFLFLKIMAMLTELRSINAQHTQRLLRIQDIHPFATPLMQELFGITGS

[9] = target: T4, Nuclear receptor subfamily 1 group I member 2; experiment: Antagonist activity at human PXR expressed in human HepG2 cells coexpressing CYP3A4 assessed as inhibition of rifampicin-induced receptor activation up to 100 uM after 24 hrs by dual luciferase reporter gene assay; format: ADME, cell-based; conditions: hepg2, 24 h
PXR mRNA = experiment: Effect on PXR mRNA expression in rat hepatocytes at 30 uM by RT-PCR analysis relative to control; format: ADME, cell-based, Hepatocyte; conditions: read-out: FC

## CC(C)(C)[C@]1(O)C[C@@H]2OC(=O)C[C@@]23C(=O)O[C@@H]2OC(=O)[C@H](O)[C@]213
CAR mRNA [1]
  fold induction at 25 µM: 1.4
[2]
  Activity: Not Active
[3]
  Activity: Not Active
[4]
  Activity: 83%
CAR mRNA [5]
  fold induction at 10 µM: 1.1
CAR mRNA [6]
  fold induction at 3 µM: 1.3
[7]
  Activity: 64%
[8]
  Activity: Not Active
[9]
  inhibition (INH): Not Active
PXR mRNA
  fold induction at 30 µM: 0.8
